Source: PubChem BioAssay (NCI)
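Compound exposure: 48 hours, 5 concentrations, 96-well plates. At the TGI there is no net growth.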

Key:
Assay in all cases: NCI tumour cell line growth inhibition, 48 h
[1] = system: HCC-2998 colon
[2] = system: UO-31 renal
[3] = system: K-562 leukemia
[4] = system: 786-0 renal
[5] = system: SK-MEL-5 melanoma
[6] = system: MALME-3M melanoma
[7] = system: SK-MEL-28 melanoma
[8] = system: EKVX NSCLC
[9] = system: CAKI-1 renal
[10] = system: ACHN renal
[11] = system: NCI-H23 lung
[12] = system: RXF 393 renal
[13] = system: LOX IMVI melanoma
[14] = system: HOP-62 NSCLC
[15] = system: SK-OV-3 ovarian
[16] = system: SR leukemia
[17] = system: HT29 colon
[18] = system: U251 CNS
[19] = system: HCT-15 colon
[20] = system: SF-295 CNS
[21] = system: OVCAR-3 ovarian
[22] = system: SNB-19 CNS
[23] = system: PC-3 prostate
[24] = system: HOP-92 NSCLC
[25] = system: T-47D breast
[26] = system: HS 578T breast
[27] = system: UACC-257 melanoma
[28] = system: COLO 205 colon
[29] = system: SF-539 CNS
[30] = system: SK-MEL-2 melanoma
[31] = system: MDA-MB-231 breast
[32] = system: MOLT-4 leukemia
[33] = system: NCI-H460 lung
[34] = system: CCRF-CEM leukemia
[35] = system: SNB-75 CNS
[36] = system: SW-620 colon
[37] = system: RPMI-8226 leukemia
[38] = system: MDA-N
[39] = system: SN12C renal
[40] = system: NCI/ADR-RES ovarian
[41] = system: OVCAR-8 ovarian
[42] = system: BT-549 breast
[43] = system: HCT-116 colon
[44] = system: TK-10 renal
[45] = system: OVCAR-4 ovarian
[46] = system: OVCAR-5 ovarian
[47] = system: HL-60(TB) leukemia
[48] = system: MDA-MB-435
[49] = system: DU-145 prostate
[50] = system: A549 NSCLC
[51] = system: KM12 colon
[52] = system: IGROV1 ovarian
[53] = system: UACC-62 melanoma
[54] = system: SF-268 CNS
[55] = system: NCI-H226 lung
[56] = system: M14 melanoma
[57] = system: NCI-H522 lung
[58] = system: MCF7 breast

O=C(Nc1ccccc1)OCCN=c1c2ccccc2ccc2ccccc12
TGI [1]: 25.1 µM | TGI [2]: 39.9 µM | TGI [3]: 51.1 µM | TGI [4]: > 100 µM | TGI [5]: 31.2 µM | TGI [6]: 46 µM | TGI [7]: 60.9 µM | TGI [8]: 92.4 µM | TGI [9]: 90.6 µM | TGI [10]: 61.8 µM | TGI [11]: > 100 µM | TGI [12]: 75.9 µM | TGI [13]: 44.5 µM | TGI [14]: > 100 µM | TGI [15]: > 100 µM | TGI [16]: 54.5 µM | TGI [17]: 38.8 µM | TGI [18]: 69.9 µM | TGI [19]: > 100 µM | TGI [20]: 39 µM | TGI [21]: 44.2 µM | TGI [22]: 62.7 µM | TGI [23]: 49.4 µM | TGI [24]: 53.2 µM | TGI [25]: 43.5 µM | TGI [26]: 51.3 µM | TGI [27]: 42.2 µM | TGI [28]: 51.4 µM | TGI [29]: 37 µM | TGI [30]: 29.1 µM | TGI [31]: > 100 µM | TGI [32]: 42.6 µM | TGI [33]: 59.1 µM | TGI [34]: 50.4 µM | TGI [35]: 80.9 µM | TGI [36]: > 100 µM | TGI [37]: 42.2 µM | TGI [38]: 39 µM | TGI [39]: > 100 µM | TGI [40]: 65.9 µM | TGI [41]: 84 µM | TGI [42]: 34.1 µM | TGI [43]: 35.9 µM | TGI [44]: > 100 µM | TGI [45]: > 100 µM | TGI [46]: > 100 µM | TGI [47]: 44.9 µM | TGI [48]: 79.6 µM | TGI [49]: > 100 µM | TGI [50]: > 100 µM | TGI [51]: 44.4 µM | TGI [52]: > 100 µM | TGI [53]: 49.1 µM | TGI [54]: > 100 µM | TGI [55]: 57.1 µM | TGI [56]: 40.8 µM

CCOC(=O)/C=C(/C(=O)OCC)n1ccc(=O)n(Cc2cn(CCCCOC(C)=O)nn2)c1=O
TGI [1]: > 100 µM | TGI [2]: > 100 µM | TGI [3]: > 100 µM | TGI [4]: > 100 µM | TGI [5]: > 100 µM | TGI [7]: > 100 µM | TGI [57]: 29.3 µM | TGI [8]: > 100 µM | TGI [9]: 53.6 µM | TGI [10]: > 100 µM | TGI [11]: > 100 µM | TGI [12]: > 100 µM | TGI [13]: > 100 µM | TGI [14]: > 100 µM | TGI [15]: > 100 µM | TGI [16]: > 100 µM | TGI [17]: > 100 µM | TGI [18]: > 100 µM | TGI [19]: > 100 µM | TGI [20]: > 100 µM | TGI [21]: > 100 µM | TGI [22]: > 100 µM | TGI [23]: > 100 µM | TGI [24]: 20.6 µM | TGI [25]: > 100 µM | TGI [26]: > 100 µM | TGI [27]: > 100 µM | TGI [28]: > 100 µM | TGI [29]: > 100 µM | TGI [30]: > 100 µM | TGI [31]: > 100 µM | TGI [32]: > 100 µM | TGI [33]: > 100 µM | TGI [34]: 35.3 µM | TGI [35]: > 100 µM | TGI [36]: > 100 µM | TGI [37]: > 100 µM | TGI [38]: > 100 µM | TGI [39]: > 100 µM | TGI [40]: > 100 µM | TGI [41]: > 100 µM | TGI [42]: > 100 µM | TGI [43]: > 100 µM | TGI [44]: > 100 µM | TGI [45]: > 100 µM | TGI [46]: > 100 µM | TGI [48]: > 100 µM | TGI [58]: > 100 µM | TGI [49]: > 100 µM | TGI [50]: > 100 µM | TGI [51]: > 100 µM | TGI [52]: > 100 µM | TGI [53]: > 100 µM | TGI [54]: > 100 µM | TGI [55]: > 100 µM
